Test results published in the supplement of paper PMC10307832.

How the values were obtained:
Experiment in all cases: relative viability (nuclei count vs DMSO), 5 days (fraction); higher = more cells survive
[1] = compound: C=CC(=O)N1CCC[C@@H](n2nc(-c3ccc(Oc4ccccc4)cc3)c3c(N)ncnc32)C1 [Ibrutinib] + Cc1nc(Nc2ncc(C(=O)Nc3c(C)cccc3Cl)s2)cc(N2CCN(CCO)CC2)n1 [Dasatinib] (partner 0.075 µM)
Summary of the method: (§1)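 Relative viability is defined as nuclei in treated wells over nuclei in vehicle wells. Duplicate plates were run and medians reported. Lung cancer cell lines in 1536-well plates were dosed by pin tool one day after seeding, with one drug or with a fixed anchor-drug dose plus five library-drug doses (not always all listed) in √10 steps, and nuclei were counted after 5 days.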

[2] = compound: C=CC(=O)Nc1cc(-n2c(=O)ccc3cnc4ccc(-c5ccc(NS(C)(=O)=O)cc5)cc4c32)ccc1C [BMX-IN-1] + Cc1nc(Nc2ncc(C(=O)Nc3c(C)cccc3Cl)s2)cc(N2CCN(CCO)CC2)n1 [Dasatinib] (partner 0.075 µM)
Summary of the method: as §1

[3] = compound: C=CCc1cccc(/C=N/NC(=O)CN2CCN(Cc3ccccc3)CC2)c1O [PAC-1] + CS(=O)(=O)CCNCc1ccc(-c2ccc3ncnc(Nc4ccc(OCc5cccc(F)c5)c(Cl)c4)c3c2)o1 [Lapatinib] (partner 2 µM)
Summary of the method: as §1

[4] = compound: C=CCc1cccc(/C=N/NC(=O)CN2CCN(Cc3ccccc3)CC2)c1O [PAC-1] + N=C(N)NC(=N)NCCc1ccccc1 [Phenformin] (partner 250 µM)
Summary of the method: as §1

Cell Line	relative viability ([1]; first compound 0.005 µM)	relative viability ([1]; first compound 0.01581 µM)	relative viability ([1]; first compound 0.05 µM)	relative viability ([1]; first compound 0.1581 µM)	relative viability ([1]; first compound 0.5 µM)	relative viability ([2]; first compound 0.02 µM)	relative viability ([2]; first compound 0.2 µM)	relative viability ([2]; first compound 0.6325 µM)	relative viability ([2]; first compound 2 µM)	relative viability ([3]; first compound 0.02 µM)	relative viability ([3]; first compound 0.06325 µM)	relative viability ([3]; first compound 0.2 µM)	relative viability ([3]; first compound 2 µM)	relative viability ([4]; first compound 0.02 µM)	relative viability ([4]; first compound 0.06325 µM)	relative viability ([4]; first compound 0.2 µM)	relative viability ([4]; first compound 2 µM)
201T	0.58	0.517	0.6	0.58	0.608	0.659	0.681	0.687	0.567	0.98	1.01	1.1	1.05	0.43	0.47	0.468	0.453
A549	–	–	–	–	–	–	–	–	–	0.935	0.804	1	1.06	0.22	0.167	0.139	0.171
A-427	0.625	0.677	0.769	0.666	0.655	0.731	1.01	0.782	0.664	1.06	1.03	1.08	0.71	0.328	0.384	0.338	0.279
ABC-1	0.493	–	0.628	0.555	0.633	0.465	0.545	0.598	0.601	1.35	1.22	1.18	1.07	0.217	0.231	0.24	0.21
BEN	–	0.291	0.232	0.273	0.314	0.308	0.34	0.241	0.295	0.629	0.604	0.671	0.75	0.273	0.282	0.266	0.302
CAL-12T	0.363	0.295	0.354	0.475	0.24	0.353	0.444	0.528	0.366	0.604	0.788	0.665	0.599	0.6	0.657	0.542	0.571
COR-L23	0.614	0.396	0.497	0.513	0.544	0.523	0.544	0.594	0.528	1.06	0.963	0.833	0.928	0.458	0.434	0.423	0.429
COR-L 105	0.258	0.369	0.229	0.322	0.162	0.324	0.297	0.342	0.305	0.294	0.361	0.413	0.406	0.465	0.484	0.428	0.455
Calu-6	–	–	–	–	–	–	–	–	–	1.06	1.08	1.01	1.18	–	–	–	–
ChaGo-K-1	0.599	0.479	0.553	0.485	0.587	0.63	0.598	0.633	0.561	–	–	–	–	0.462	0.493	0.513	0.439
EBC-1	–	–	–	–	–	–	–	–	–	0.184	0.218	0.23	0.225	–	–	–	–
EKVX	0.525	0.455	0.481	0.489	0.352	0.532	0.474	0.484	0.59	0.203	0.18	0.208	0.176	0.232	0.244	0.226	0.195
EMC-BAC-2	0.314	0.316	0.346	0.343	0.296	0.348	0.345	0.326	0.353	0.841	0.865	0.899	0.974	0.496	0.556	0.52	0.511
EPLC-272H	0.274	0.294	0.284	0.279	0.188	0.354	0.266	0.393	0.314	–	1.2	0.978	0.942	0.298	0.339	0.241	0.288
H3255	0.35	0.346	0.276	0.292	0.242	0.363	0.394	0.397	0.33	0.268	0.256	0.246	0.269	0.398	0.394	0.334	0.308
HARA	0.288	0.235	0.223	0.236	0.194	0.258	0.305	0.342	0.244	0.698	0.875	0.796	0.905	0.438	0.476	0.446	0.507
HCC-15	0.678	0.615	0.637	0.51	0.66	0.662	0.64	0.745	0.64	0.907	0.945	0.814	0.861	0.466	0.487	0.457	0.491
HCC-44	–	–	–	–	–	–	–	–	–	1.06	1.04	0.962	1.03	0.184	0.18	0.17	0.131
HCC-78	0.309	0.402	0.304	0.312	0.267	0.379	0.421	0.37	0.462	0.753	0.822	0.657	1.05	0.8	0.639	0.809	0.759
HCC-366	0.734	0.569	0.633	0.538	0.597	0.907	0.741	0.618	0.71	1.07	1.03	1.06	0.976	0.612	0.634	0.595	0.655
HCC-827	0.358	0.277	0.206	0.262	0.143	0.296	0.277	0.371	0.276	0.193	0.194	0.186	0.198	0.383	0.402	0.368	0.4
